One may read the IC50 as the midpoint of a concentration-inhibition curve.

Where two headings read alike, the source gives them in different places. Bounds are passed on as bounds.

The subject of the experiment is HCV proteins in Rep5.1 cells (replicon cell line). The experiment can be described thus: Inhibitory activity of HCV: cell-based ELISA in replicon cell line Rep5.1 (decrease of HCV proteins). Also on record: species or system hepatitis C virus. In a few lines:
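Rep5.1 replicon cells (5000/well, DMEM-10 with 500 μg/ml G418) were given serially diluted drug 4 h after seeding. After 72 h, cells were fixed in methanol/acetone and HCV proteins detected by cell-based ELISA using replicon-specific patient plasma antibodies. IC50 is the concentration giving 50% protein decrease versus the no-drug control.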
In general terms: An ELISA detects its analyte on a solid surface through an enzyme-linked reagent.

Where [1] appears, read: Hepatitis C virus, 72 h, Rep5.1 cells, 72 hours with drug, concentration at which 50% of HCV proteins was decreased, Table 2, read-out: IC50.
Setting [2] is: Hepatitis C virus, 72 h, Rep5.1 cells, 72 hours with drug, decrease of HCV proteins measured by HCV antibody, Table 1, read-out: Level (IC50 values classified).
Setting [3] is: Rep5.1 cells, 72 hours with drug, concentration at which 50% of HCV proteins was decreased, Table 2, read-out: IC50.

Turning to `C=CCN(C)c1ccc(CCOC(=O)C2=C(C)NC(=S)NC2CO)cc1[N+](=O)[O-]` (centres unmarked) [96″, 4-Hydroxymethyl-6-methyl-2-thioxo-1,2,3,4-tetrahydro-pyrimidine-5-carboxylic acid 2-[4-(allyl-methyl-amino)-3-nitro-phenyl]-ethyl ester], the IC50 under setting [1] stood at 900 nM and the IC50 under setting [2] was < 1000 nM. For `CC1=C(C(=O)OCc2c(C)nn(-c3ccccc3)c2C)CNC(=S)N1` [Compound 181, 6-methyl-2-thioxo-1,2,3,4-tetrahydro-pyrimidine-5-carboxylic acid 3,5-dimethyl-1-phenyl-1H-pyrazol-4-ylmethyl ester], the IC50 is > 100000 nM under setting [1] and > 20000 nM under setting [2]. Turning to `CCN(CCOC(=O)C1=C(C)NC(=S)NC1)c1cccc(C)c1` [Compound 59, 6-methyl-2-thioxo-1,2,3,4-tetrahydro-pyrimidine-5-carboxylic acid 2-(ethyl-m-tolyl-amino)-ethyl ester], the half-maximal inhibitory concentration (IC50) runs as follows: under setting [1], 3000 nM; under setting [2], 1000 to 10000 nM. For the compound `COCC1=C(C(=O)OCc2ccccc2)CNC(=S)N1` [Compound 64, 6-methoxymethyl-2-thioxo-1,2,3,4-tetrahydro-pyrimidine-5-carboxylic acid benzyl ester], the IC50 was 15000 nM under setting [1] and 10000 to 20000 nM under setting [2].

As to `CC1=C(C(=O)OCc2cccc(C)c2C)CNC(=S)N1` [Compound 156, 6-methyl-2-thioxo-1,2,3,4-tetrahydro-pyrimidine-5-carboxylic acid 2,3-dimethyl-benzyl ester], the IC50 reads like this: under setting [1], 500 nM; under setting [2], < 1000 nM. As to `CC1=C(C(=O)OC(C)Cc2ccsc2Br)C(CO)NC(=S)N1` (centres unmarked) [7″, 4-hydroxymethyl-6-methyl-2-thioxo-1,2,3,4-tetrahydro-pyrimidine-5-carboxylic acid 2-(2-bromo-thiophen-3-yl)-1-methyl-ethyl ester], the IC50 reads like this: under setting [1], 7000 nM; under setting [2], 1000 to 10000 nM. For `CC1=C(C(=O)OCC#Cc2ccsc2)CNC(=S)N1` [Compound 240, 6-methyl-2-thioxo-1,2,3,4-tetrahydro-pyrimidine-5-carboxylic acid 3-thiophen-3-yl-prop-2-inyl ester], under setting [3], the IC50 is < 400 nM. Consider `COc1ccc(Cl)cc1COC(=O)C1=C(C)NC(=S)NC1` [Compound 132, 6-methyl-2-thioxo-1,2,3,4-tetrahydro-pyrimidine-5-carboxylic acid 5-chloro-2-methoxy-benzyl ester], for which the 50% inhibitory concentration (IC50) reads like this: under setting [1], 400 nM; under setting [2], < 1000 nM.

Regarding `CC1=C(C(=O)OCc2ccc(-c3ccccc3)cc2)C(CO)NC(=S)N1` (centres unmarked) [28″, 4-hydroxymethyl-6-methyl-2-thioxo-1,2,3,4-tetrahydro-pyrimidine-5-carboxylic acid biphenyl-4-ylmethyl ester], the 50% inhibitory concentration (IC50) is, setting by setting: under setting [1], 1000 nM; under setting [2], < 1000 nM. For `CC1=C(C(=O)OCc2cccc(SC(F)(F)F)c2)CNC(=S)N1` [Compound 164, 6-methyl-2-thioxo-1,2,3,4-tetrahydro-pyrimidine-5-carboxylic acid 3-trifluoromethylsulfanyl-benzyl ester], the IC50 was < 400 nM under setting [1] and < 1000 nM under setting [2]. Consider `CC1=C(C(=O)OCc2ccccc2)CNC(=S)N1` [Compound 6, 6-methyl-2-thioxo-1,2,3,4-tetrahydro-pyrimidine-5-carboxylic acid benzyl ester], for which the IC50 under setting [1] came to 1000 nM and the IC50 under setting [2] was < 1000 nM. For `CC1=C(C(=O)OCc2ccc(C)cc2)CNC(=S)N1` [Compound 89, 6-methyl-2-thioxo-1,2,3,4-tetrahydro-pyrimidine-5-carboxylic acid 4-methyl-benzyl ester], in that order: 800 nM and < 1000 nM.

Take `CC1=C(C(=O)OCCc2ccsc2)C(c2ccccc2)NC(=S)N1` (centres unmarked) [4′, 6-methyl-4-phenyl-2-thioxo-1,2,3,4-tetrahydro-pyrimidine-5-carboxylic acid 2-thiophen-3-yl-ethyl ester]: the IC50 under setting [1] is 51000 nM and the IC50 under setting [2] was > 20000 nM. With `CC(C)=CCOC(=O)C1=C(C)NC(=S)NC1` [Compound 53, 6-methyl-2-thioxo-1,2,3,4-tetrahydro-pyrimidine-5-carboxylic acid 3-methyl-but-2-enyl ester], the 50% inhibitory concentration (IC50) is, setting by setting: (Hepatitis C virus, 72 h) 6600 nM; (Hepatitis C virus, 72 h, read-out: Level (IC50 values classified)) 1000 to 10000 nM. For the compound `CC1=C(C(=O)OCCc2cc3c(C)snc3s2)CNC(=S)N1` [5′, 6-methyl-2-thioxo-1,2,3,4-tetrahydro-pyrimidine-5-carboxylic acid 2-(3-methyl-thieno[2,3-c]isothiazol-5-yl)-ethyl ester], the IC50 under setting [1] was determined as 2500 nM and the IC50 under setting [2] was in the range of 1000 to 10000 nM.

As for `CC1=C(C(=O)OCc2ccc3ncsc3c2)CNC(=S)N1` [Compound 248, 6-methyl-2-thioxo-1,2,3,4-tetrahydro-pyrimidine-5-carboxylic acid benzothiazol-6-ylmethyl ester], the 50% inhibitory concentration (IC50) was 5000 nM under setting [1] and 1000 to 10000 nM under setting [2]. For `CC1=C(C(=O)OCc2cc(F)cc(F)c2)C(CO)NC(=S)N1` (centres unmarked) [71″, 4-hydroxymethyl-6-methyl-2-thioxo-1,2,3,4-tetrahydro-pyrimidine-5-carboxylic acid 3,5-difluoro-benzyl ester], in that order: > 100000 nM and > 20000 nM. With `CC1=C(C(=O)OCCc2c(F)cccc2Cl)C(CO)NC(=S)N1` (centres unmarked) [59″, 4-hydroxymethyl-6-methyl-2-thioxo-1,2,3,4-tetrahydro-pyrimidine-5-carboxylic acid 2-(2-chloro-6-fluoro-phenyl)-ethyl ester], the IC50 is, setting by setting: under setting [1], 2500 nM; under setting [2], 1000 to 10000 nM. Consider `CC1=C(C(=O)OCC2=Cc3ccccc3S2(=O)=O)CNC(=S)N1` [Compound 127, 6-methyl-2-thioxo-1,2,3,4-tetrahydro-pyrimidine-5-carboxylic acid 1,1-dioxo-1H-11^6-benzo[b]thiophen-2-ylmethyl ester], for which the concentration for half-maximal inhibition (IC50) under setting [3] was found to be 3500 nM.

Consider `CC1=C(C(=O)OCCc2cccc(Cl)c2)C(COC(=O)OCCOC(=O)c2ccccc2)NC(=S)N1` (centres unmarked) [76″, 4-(2-benzoyloxy-ethoxycarbonyloxymethyl)-6-methyl-2-thioxo-1,2,3,4-tetrahydro-pyrimidine-5-carboxylic acid 2-(3-chloro-phenyl)-ethyl ester], for which the concentration for half-maximal inhibition (IC50) is, setting by setting: under setting [1], 900 nM; under setting [2], < 1000 nM. `CC(=O)OCC1NC(=S)NC(C)=C1C(=O)OCCc1cccc(Cl)c1` (centres unmarked) [44″, 4-acetoxymethyl-6-methyl-2-thioxo-1,2,3,4-tetrahydro-pyrimidine-5-carboxylic acid 2-(3-chloro-phenyl)-ethyl ester]: the IC50 is, setting by setting: under setting [1], 5000 nM; under setting [2], 1000 to 10000 nM. Regarding `CC1=C(C(=O)OCCc2ccsc2Br)C(CO)NC(=S)N1` (centres unmarked) [10″, 4-hydroxymethyl-6-methyl-2-thioxo-1,2,3,4-tetrahydro-pyrimidine-5-carboxylic acid 2-(2-bromo-thiophen-3-yl)-ethyl ester], the half-inhibitory concentration (IC50) reads like this: under setting [1], 7000 nM; under setting [2], 1000 to 10000 nM. On to `CC1=C(C(=O)OCc2ccc(C)cc2C)CNC(=S)N1` [Compound 122, 6-methyl-2-thioxo-1,2,3,4-tetrahydro-pyrimidine-5-carboxylic acid 2,4-dimethyl-benzyl ester], for which the IC50 was 800 nM under setting [1] and < 1000 nM under setting [2].

With `CC1=C(C(=O)OCCCCCCCCc2ccccc2)CNC(=S)N1` [Compound 33, 6-methyl-2-thioxo-1,2,3,4-tetrahydro-pyrimidine-5-carboxylic acid 8-phenyl-octyl ester], the IC50 was < 500 nM under setting [1] and < 1000 nM under setting [2]. On to `CSc1ccccc1COC(=O)C1=C(C)NC(=S)NC1` [Compound 110, 6-methyl-2-thioxo-1,2,3,4-tetrahydro-pyrimidine-5-carboxylic acid 2-methylsulfanyl-benzyl ester], for which the IC50 by setting is: under setting [1], 17000 nM; under setting [2], 1000 to 10000 nM. As to `CC1=C(C(=O)OCCOCc2ccccc2)CNC(=S)N1` [Compound 15, 6-methyl-2-thioxo-1,2,3,4-tetrahydro-pyrimidine-5-carboxylic acid 2-benzyloxy-ethyl ester], the IC50 was 3000 nM under setting [1] and 1000 to 10000 nM under setting [2].

As to `CC1=C(C(=O)OCc2ccc(F)cc2Cl)CNC(=S)N1` [Compound 70, 6-methyl-2-thioxo-1,2,3,4-tetrahydro-pyrimidine-5-carboxylic acid 2-chloro-4-fluoro-benzyl ester], the IC50 runs as follows: under setting [1], < 500 nM; under setting [2], < 1000 nM.

`CCc1ccc(CCOC(=O)C2=C(C)NC(=S)NC2)o1` [22′, 6-methyl-2-thioxo-1,2,3,4-tetrahydro-pyrimidine-5-carboxylic acid 2-(5-ethyl-furan-2-yl)-ethyl ester]: the IC50 was < 400 nM under setting [1] and < 1000 nM under setting [2]. Regarding `C#CCOC(=O)C1=C(C)NC(=S)NC1` [Compound 159, 6-methyl-2-thioxo-1,2,3,4-tetrahydro-pyrimidine-5-carboxylic acid prop-2-inyl ester], the IC50 under setting [3] is > 100000 nM.

As for `CC1=C(C(=O)OC(C)Cc2ccsc2Br)C(CF)NC(=S)N1` (centres unmarked) [27′, 4-fluoromethyl-6-methyl-2-thioxo-1,2,3,4-tetrahydro-pyrimidine-5-carboxylic acid 2-(2-bromo-thiophen-3-yl)-1-methyl-ethyl ester], the IC50 was < 400 nM under setting [1] and < 1000 nM under setting [2]. Regarding `CC1=C(C(=O)OCc2ccc([N+](=O)[O-])c(C)c2)CNC(=S)N1` [Compound 135, 6-methyl-2-thioxo-1,2,3,4-tetrahydro-pyrimidine-5-carboxylic acid 3-methyl-4-nitro-benzyl ester], the IC50 reads like this: under setting [1], 900 nM; under setting [2], < 1000 nM.

The record behind these values is patent US20060116390A1, “Hepatitis c virus inhibitors” (priority 2003, published 2006).
